The record followed here is paper PMC7026418, “The kinase polypharmacology landscape of clinical PARP inhibitors” (Scientific Reports, 2020).

Some targets named below: RET(V804L) (Homo sapiens, UniProt P07949, V804L); DAPK1 (Homo sapiens, UniProt P53355); MARK3 (Homo sapiens, UniProt P27448); EPHA2 (Homo sapiens, UniProt P29317); CSF1R (Homo sapiens, UniProt P07333); GSK3A (Homo sapiens, UniProt P49840); RIPK2 (Homo sapiens, UniProt O43353); CDK5 (Homo sapiens, UniProt Q00535); ACVRL1 (Homo sapiens, UniProt P37023); PDGFRA (Homo sapiens, UniProt P16234); CDK7 (Homo sapiens, UniProt P50613); CDK3 (Homo sapiens, UniProt Q00526); RIOK2 (Homo sapiens, UniProt Q9BVS4).

Holding throughout (assay): biochemical
Parameters in all cases: DiscoveRx KINOMEscan active site-directed competition binding; percent of control kinase bound to immobilised ligand

The target in a further test is T1, LATS1 (Homo sapiens, UniProt O95835).
T1 sequence (O95835 1-1130): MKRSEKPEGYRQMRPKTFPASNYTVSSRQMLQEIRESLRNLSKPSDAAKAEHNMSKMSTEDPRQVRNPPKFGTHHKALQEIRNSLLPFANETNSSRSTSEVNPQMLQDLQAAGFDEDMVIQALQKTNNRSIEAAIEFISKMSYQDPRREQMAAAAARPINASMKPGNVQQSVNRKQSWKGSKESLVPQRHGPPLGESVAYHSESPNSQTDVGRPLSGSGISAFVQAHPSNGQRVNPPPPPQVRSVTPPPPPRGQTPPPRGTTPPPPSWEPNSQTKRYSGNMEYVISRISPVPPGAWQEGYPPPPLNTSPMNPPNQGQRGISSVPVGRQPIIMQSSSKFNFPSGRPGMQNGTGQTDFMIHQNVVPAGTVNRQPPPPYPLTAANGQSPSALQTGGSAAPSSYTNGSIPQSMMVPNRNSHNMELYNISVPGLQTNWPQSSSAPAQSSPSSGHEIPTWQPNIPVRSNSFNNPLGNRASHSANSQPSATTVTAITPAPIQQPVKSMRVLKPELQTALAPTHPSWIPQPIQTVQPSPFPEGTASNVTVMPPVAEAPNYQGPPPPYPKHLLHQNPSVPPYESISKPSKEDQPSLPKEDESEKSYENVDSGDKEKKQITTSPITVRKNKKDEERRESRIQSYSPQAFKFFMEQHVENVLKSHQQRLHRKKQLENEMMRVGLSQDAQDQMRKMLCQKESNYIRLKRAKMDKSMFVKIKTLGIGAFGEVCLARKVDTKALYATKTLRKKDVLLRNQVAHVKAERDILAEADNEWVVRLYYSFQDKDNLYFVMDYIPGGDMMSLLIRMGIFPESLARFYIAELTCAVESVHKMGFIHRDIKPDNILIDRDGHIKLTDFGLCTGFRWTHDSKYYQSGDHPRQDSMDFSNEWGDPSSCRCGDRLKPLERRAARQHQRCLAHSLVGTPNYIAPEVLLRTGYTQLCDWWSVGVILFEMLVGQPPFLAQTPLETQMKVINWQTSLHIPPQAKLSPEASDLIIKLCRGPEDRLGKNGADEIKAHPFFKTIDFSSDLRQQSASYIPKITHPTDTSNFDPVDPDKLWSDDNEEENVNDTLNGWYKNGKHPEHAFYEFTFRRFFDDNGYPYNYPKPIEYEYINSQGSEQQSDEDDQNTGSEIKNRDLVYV

In test [1] the target is T2, RSK3(Kin.Dom.1-N-terminal) (Homo sapiens, UniProt Q15349).
T2 construct: gene RPS6KA2; Kin.Dom.1-N-terminal

The next test concerns the target T3, TRKB (Homo sapiens, UniProt Q16620).
T3 construct: gene NTRK2

[2] abbreviates: read-out: Niraparib (MK-4827) / %Ctrl @ 10000nM.
Setting [3] is: read-out: Olaparib / %Ctrl @ 10000nM.
Setting [4] is: read-out: Rucaparib / %Ctrl @ 10000nM, binding competition, % of control.
The mark [5] stands for this setting: read-out: Talazoparib (BMN 673) / %Ctrl @ 10000nM.

Where two headings read alike, the source gives them in different places.

Chain of RIPK2 (O43353 whole entry): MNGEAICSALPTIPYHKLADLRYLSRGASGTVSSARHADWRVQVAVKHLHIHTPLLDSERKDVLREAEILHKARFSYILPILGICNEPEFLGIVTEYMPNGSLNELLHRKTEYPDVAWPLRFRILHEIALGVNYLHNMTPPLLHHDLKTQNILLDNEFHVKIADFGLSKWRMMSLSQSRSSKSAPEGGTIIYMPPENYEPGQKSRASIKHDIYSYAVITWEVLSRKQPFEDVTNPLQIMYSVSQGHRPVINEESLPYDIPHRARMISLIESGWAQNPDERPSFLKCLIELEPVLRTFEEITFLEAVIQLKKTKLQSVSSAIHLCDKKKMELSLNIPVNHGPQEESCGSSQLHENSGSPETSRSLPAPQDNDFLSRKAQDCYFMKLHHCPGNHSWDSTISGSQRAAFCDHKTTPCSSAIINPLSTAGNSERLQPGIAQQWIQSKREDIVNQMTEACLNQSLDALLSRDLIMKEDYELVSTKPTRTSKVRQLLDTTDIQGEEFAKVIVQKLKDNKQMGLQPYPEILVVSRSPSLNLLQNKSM
Chain of EPHA2 (P29317 whole entry): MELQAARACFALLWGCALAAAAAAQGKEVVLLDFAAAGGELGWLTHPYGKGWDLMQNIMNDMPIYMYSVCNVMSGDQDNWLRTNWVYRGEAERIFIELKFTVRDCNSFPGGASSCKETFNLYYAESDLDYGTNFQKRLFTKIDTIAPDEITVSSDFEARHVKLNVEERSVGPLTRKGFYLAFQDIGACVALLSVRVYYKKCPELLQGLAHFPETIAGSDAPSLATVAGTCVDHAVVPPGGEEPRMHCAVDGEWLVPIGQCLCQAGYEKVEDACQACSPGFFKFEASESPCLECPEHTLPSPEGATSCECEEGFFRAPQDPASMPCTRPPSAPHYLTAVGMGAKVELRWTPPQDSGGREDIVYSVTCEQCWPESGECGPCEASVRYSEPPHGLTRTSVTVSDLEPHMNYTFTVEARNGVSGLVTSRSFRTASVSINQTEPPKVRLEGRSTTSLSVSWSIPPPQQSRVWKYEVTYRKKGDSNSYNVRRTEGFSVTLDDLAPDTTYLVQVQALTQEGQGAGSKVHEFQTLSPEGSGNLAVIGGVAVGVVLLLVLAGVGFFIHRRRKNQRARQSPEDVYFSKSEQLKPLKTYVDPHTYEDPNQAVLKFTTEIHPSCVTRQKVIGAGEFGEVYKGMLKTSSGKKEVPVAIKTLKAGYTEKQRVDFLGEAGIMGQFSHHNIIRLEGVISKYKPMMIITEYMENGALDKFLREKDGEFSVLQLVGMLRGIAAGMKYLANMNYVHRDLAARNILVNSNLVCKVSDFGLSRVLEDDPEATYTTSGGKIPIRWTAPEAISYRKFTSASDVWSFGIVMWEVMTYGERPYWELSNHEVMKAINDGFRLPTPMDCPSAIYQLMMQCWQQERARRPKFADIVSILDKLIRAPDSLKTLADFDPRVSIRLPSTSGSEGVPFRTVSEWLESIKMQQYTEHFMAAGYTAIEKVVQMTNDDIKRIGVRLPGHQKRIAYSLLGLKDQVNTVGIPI
Chain of MARK3 (P27448 whole entry): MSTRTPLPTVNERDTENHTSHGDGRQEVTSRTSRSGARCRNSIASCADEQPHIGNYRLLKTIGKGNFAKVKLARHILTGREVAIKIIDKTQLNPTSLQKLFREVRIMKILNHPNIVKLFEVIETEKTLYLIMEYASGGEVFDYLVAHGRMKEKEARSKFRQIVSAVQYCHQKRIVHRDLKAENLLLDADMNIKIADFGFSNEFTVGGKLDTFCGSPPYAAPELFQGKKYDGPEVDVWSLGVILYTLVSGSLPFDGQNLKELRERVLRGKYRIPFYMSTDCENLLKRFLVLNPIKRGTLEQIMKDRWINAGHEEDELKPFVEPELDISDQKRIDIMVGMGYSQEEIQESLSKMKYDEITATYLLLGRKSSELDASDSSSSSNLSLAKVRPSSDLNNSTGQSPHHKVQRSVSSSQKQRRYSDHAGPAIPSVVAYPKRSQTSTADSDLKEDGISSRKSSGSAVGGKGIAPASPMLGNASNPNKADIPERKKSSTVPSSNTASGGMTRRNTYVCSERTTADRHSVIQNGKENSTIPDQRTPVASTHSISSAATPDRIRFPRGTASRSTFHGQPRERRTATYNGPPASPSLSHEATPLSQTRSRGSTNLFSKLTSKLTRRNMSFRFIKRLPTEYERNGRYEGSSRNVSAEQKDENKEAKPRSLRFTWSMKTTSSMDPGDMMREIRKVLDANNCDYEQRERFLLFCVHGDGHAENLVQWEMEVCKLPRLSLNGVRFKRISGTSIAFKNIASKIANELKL
Chain of CSF1R (P07333 whole entry): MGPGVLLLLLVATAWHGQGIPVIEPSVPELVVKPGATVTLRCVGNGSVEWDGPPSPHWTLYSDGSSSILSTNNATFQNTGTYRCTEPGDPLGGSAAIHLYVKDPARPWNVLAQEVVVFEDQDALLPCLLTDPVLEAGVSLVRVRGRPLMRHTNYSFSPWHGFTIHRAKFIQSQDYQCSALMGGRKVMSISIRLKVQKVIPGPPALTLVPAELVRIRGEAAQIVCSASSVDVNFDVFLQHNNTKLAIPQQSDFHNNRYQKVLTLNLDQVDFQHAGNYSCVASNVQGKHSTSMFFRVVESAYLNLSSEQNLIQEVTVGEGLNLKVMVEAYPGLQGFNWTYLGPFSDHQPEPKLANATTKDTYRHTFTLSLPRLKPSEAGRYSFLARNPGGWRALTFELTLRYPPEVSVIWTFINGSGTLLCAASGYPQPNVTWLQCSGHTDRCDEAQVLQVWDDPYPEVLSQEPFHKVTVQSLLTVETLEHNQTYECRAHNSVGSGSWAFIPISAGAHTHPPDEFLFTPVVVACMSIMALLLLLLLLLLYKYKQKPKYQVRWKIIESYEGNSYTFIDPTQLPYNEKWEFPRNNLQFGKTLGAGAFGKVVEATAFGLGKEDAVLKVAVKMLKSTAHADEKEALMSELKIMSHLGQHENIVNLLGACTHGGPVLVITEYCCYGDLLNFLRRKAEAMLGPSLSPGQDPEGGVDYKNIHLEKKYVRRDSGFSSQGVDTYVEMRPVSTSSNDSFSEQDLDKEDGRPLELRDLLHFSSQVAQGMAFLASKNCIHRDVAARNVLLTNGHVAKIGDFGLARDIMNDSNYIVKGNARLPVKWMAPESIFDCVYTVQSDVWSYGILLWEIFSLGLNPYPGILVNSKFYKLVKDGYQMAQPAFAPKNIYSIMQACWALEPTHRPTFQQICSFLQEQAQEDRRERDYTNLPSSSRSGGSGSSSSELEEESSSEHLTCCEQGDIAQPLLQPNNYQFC
Chain of RET(V804L) (P07949 whole entry V804L): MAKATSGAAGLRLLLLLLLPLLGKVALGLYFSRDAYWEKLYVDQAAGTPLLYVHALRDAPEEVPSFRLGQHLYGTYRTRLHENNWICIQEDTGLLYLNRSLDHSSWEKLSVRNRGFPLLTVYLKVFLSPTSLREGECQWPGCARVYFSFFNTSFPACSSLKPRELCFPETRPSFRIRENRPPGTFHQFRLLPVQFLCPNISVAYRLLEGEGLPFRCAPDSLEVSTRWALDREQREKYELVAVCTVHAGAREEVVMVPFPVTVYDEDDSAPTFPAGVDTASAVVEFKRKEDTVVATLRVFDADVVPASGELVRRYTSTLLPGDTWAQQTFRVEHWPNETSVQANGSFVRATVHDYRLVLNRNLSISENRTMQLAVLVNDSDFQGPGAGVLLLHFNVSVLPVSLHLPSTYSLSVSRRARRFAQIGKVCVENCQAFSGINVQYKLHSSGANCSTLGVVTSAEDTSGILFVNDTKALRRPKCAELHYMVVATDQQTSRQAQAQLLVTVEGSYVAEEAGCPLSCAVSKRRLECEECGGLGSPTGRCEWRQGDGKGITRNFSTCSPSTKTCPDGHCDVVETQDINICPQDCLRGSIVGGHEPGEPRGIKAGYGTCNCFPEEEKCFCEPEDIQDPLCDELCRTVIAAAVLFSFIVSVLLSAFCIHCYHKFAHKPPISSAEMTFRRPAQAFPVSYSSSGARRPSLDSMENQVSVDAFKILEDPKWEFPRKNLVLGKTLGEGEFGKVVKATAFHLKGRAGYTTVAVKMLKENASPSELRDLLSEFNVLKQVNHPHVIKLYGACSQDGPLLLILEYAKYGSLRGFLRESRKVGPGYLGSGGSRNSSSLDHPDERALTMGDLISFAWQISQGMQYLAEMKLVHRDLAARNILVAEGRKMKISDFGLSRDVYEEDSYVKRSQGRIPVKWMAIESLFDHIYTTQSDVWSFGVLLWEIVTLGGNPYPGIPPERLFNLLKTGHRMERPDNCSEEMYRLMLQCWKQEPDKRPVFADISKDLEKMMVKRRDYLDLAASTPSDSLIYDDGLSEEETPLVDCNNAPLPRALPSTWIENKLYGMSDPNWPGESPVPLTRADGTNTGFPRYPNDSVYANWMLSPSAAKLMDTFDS
Chain of RIOK2 (Q9BVS4 whole entry): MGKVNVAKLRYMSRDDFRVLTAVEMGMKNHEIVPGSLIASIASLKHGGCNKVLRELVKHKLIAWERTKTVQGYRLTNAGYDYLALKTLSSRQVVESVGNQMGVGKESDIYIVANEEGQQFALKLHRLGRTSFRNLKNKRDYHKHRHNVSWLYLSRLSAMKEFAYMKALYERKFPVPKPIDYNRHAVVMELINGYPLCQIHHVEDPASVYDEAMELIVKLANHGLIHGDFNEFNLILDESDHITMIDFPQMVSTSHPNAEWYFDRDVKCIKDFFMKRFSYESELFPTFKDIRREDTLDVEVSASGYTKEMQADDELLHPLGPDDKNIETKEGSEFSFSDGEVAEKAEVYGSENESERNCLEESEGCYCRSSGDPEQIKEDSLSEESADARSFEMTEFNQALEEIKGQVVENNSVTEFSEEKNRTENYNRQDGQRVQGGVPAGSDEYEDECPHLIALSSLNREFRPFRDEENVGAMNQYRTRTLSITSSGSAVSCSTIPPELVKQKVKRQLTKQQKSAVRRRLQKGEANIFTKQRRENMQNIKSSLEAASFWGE

As to `NC(=O)c1cccc2cn(-c3ccc([C@@H]4CCCNC4)cc3)nc12` [Niraparib], the percent of control binding at 10 µM at LATS1 (setting [2]) turned out to be 36%; at RET(V804L) (setting [2]), 92%; at DAPK1 (setting [2]), 77%; at MARK3 (setting [2]), 91%; at EPHA2 (setting [2]), 94%; on CSF1R (setting [2]), 91%. Besides, the percent of control binding at 10 µM was 74% in test [1] (setting [2]); 96% on TRKB (setting [2]); 48% at GSK3A (setting [2]); 78% on RIPK2 (setting [2]); 90% on CDK5 (setting [2]); 98% at ACVRL1 (setting [2]). Besides, the percent of control binding at 10 µM at PDGFRA (setting [2]) was found to be 69%; on CDK7 (setting [2]) it was 73%; at CDK3 (setting [2]), 95%; on RIOK2 (setting [2]), 67%.
On to `O=C(c1cc(Cc2n[nH]c(=O)c3ccccc23)ccc1F)N1CCN(C(=O)C2CC2)CC1` [Olaparib], for which the percent of control binding at 10 µM on LATS1 (setting [3]) came out at 78%; at RET(V804L) (setting [3]) it was 100%; at DAPK1 (setting [3]), 87%; on MARK3 (setting [3]), 96%; on EPHA2 (setting [3]) it was 97%; on CSF1R (setting [3]) it was 95%. For the same molecule, the percent of control binding at 10 µM in test [1] (setting [3]) came out at 97%; at TRKB (setting [3]), 76%; on GSK3A (setting [3]) it was 95%; on RIPK2 (setting [3]) it was 93%; on CDK5 (setting [3]), 95%; on ACVRL1 (setting [3]) it was 97%. The percent of control binding at 10 µM is 75% on PDGFRA (setting [3]), 89% on CDK7 (setting [3]), 100% at CDK3 (setting [3]) and 84% at RIOK2 (setting [3]).
Turning to `CNCc1ccc(-c2[nH]c3cc(F)cc4c3c2CCNC4=O)cc1` [Rucaparib], the percent of control binding at 10 µM turned out to be 75% on LATS1 (setting [4]); 95% on RET(V804L) (setting [4]); 29% at DAPK1 (setting [4]); 100% at MARK3 (setting [4]); 100% at EPHA2 (setting [4]); 94% on CSF1R (setting [4]). Further, the percent of control binding at 10 µM in [1] (setting [4]) came to 99%; on TRKB (setting [4]) it was 66%; at GSK3A (setting [4]) it was 21%; on RIPK2 (setting [4]), 88%; on CDK5 (setting [4]) it was 88%; on ACVRL1 (setting [4]) it was 100%. In addition, the percent of control binding at 10 µM on PDGFRA (setting [4]) came out at 53%; on CDK7 (setting [4]) it was 71%; on CDK3 (setting [4]), 94%; on RIOK2 (setting [4]), 69%.
On to `Cn1ncnc1[C@H]1c2n[nH]c(=O)c3cc(F)cc(c23)N[C@@H]1c1ccc(F)cc1` [Talazoparib], for which the percent of control binding at 10 µM at LATS1 (setting [5]) amounted to 92%; at RET(V804L) (setting [5]) it was 96%; at DAPK1 (setting [5]) it was 89%; on MARK3 (setting [5]), 98%; at EPHA2 (setting [5]) it was 100%; at CSF1R (setting [5]), 99%. Further, the percent of control binding at 10 µM came out at 84% in [1] (setting [5]); 100% at TRKB (setting [5]); 100% at GSK3A (setting [5]); 100% on RIPK2 (setting [5]); 98% on CDK5 (setting [5]); 84% on ACVRL1 (setting [5]). Besides, the percent of control binding at 10 µM amounted to 99% at PDGFRA (setting [5]), 100% on CDK7 (setting [5]), 100% at CDK3 (setting [5]) and 100% on RIOK2 (setting [5]).
